From article PMC4474554 (PLoS ONE, 2015)
“And” between values parts separate entries of the source, which are not always exact repeats. Equal entries are not always repeated. “Also recorded” adds a separate entry of the source. Where two headings read alike, the source gives them in different places.

Key:
Lck = system: Lck; parameters: method as in earlier work; settings: updated data; cited from earlier work
NCI-H2228 = experiment: MTS assay, NCI-H2228
NCI-H1819 = experiment: MTS assay, NCI-H1819
[1] = system: phospho-EGFR and phospho-AKT; experiment: Western blotting, EGFR and AKT phosphorylation in transfected HEK-293T; type: cell-based; settings: HEK-293T cell with the mutant EGFR (L858R)
Experimental: (§1) Next, they were washed out with cold PBS and lysed in 1 × cell lysis buffer [20 mM Tris-HCl (pH 7.5), 150 mM NaCl, 1 mM Na2EDTA, 1 mM EGTA, 1% Triton, 2.5 mM sodium pyrophosphate, 1 mM beta-glycerophosphate, 1 mM Na3VO4, 1 μg/ml leupeptin] (Cell signaling Technology) supplemented with Complete, Mini (Roche, Basel, Switzerland) to extract protein. After the protein concentration was measured, equal amounts of total protein (30 μg) were separated by SDS-PAGE and transferred to PVDF membranes. The proteins on membranes were incubated overnight at 4°C with the primary antibodies. The following secondary antibodies were used: goat antirabbit or antimouse IgG-conjugated horseradish peroxidase (HRP) (Santa Cruz Biotechnology, Santa Cruz, CA). To detect specific signals, the membranes were incubated by ECL plus Western Blotting Detection Reagents (Amersham Biosciences UK Limited, Buckinghamshire, UK).

c-Met = settings: updated data; cited from earlier work
phospho-IGF-IR [2] = experiment: Western blotting, IGF-IR phosphorylation after serum-starvation; type: cell-based; settings: PC-9, RPC-9, NCI-H1299, NCI-H1819; regardless of IGF-I ligand stimulation; TAE226 two hours
Experimental: as §1

NCI-H1648 = experiment: MTS assay, NCI-H1648
RPC-9 = experiment: MTS assay, RPC-9
PKA = system: PKA; parameters: method as in earlier work; settings: updated data; cited from earlier work
FAK = system: FAK; parameters: method as in earlier work; settings: updated data; cited from earlier work
Tek = system: Tek; parameters: method as in earlier work; settings: updated data; cited from earlier work
NCI-H1975 = experiment: MTS assay, NCI-H1975
NCI-H1299 = experiment: MTS assay, NCI-H1299
SK-BR-3 = experiment: MTS assay, SK-BR-3
Insulin-R = system: Insulin-R; parameters: method as in earlier work; settings: updated data; cited from earlier work
phospho-IGF-IR [3] = experiment: Western blotting, IGF-IR phosphorylation in NSCLC cell lines; type: cell-based; settings: up to a concentration of 5 μM; PC-9, HCC827, NCI-H1975, RPC-9, NCI-H1299, NCI-H1819
Experimental: as §1

FGFR-1 = settings: updated data; cited from earlier work
Flt-3 = system: Flt-3; parameters: method as in earlier work; settings: updated data; cited from earlier work
RPC-9 xenograft = RPC-9 xenograft mouse model; type: in vivo, BALB/c-nu/nu female nude mice; settings: oral, once a day, 14 days, 30, 60 and 90 mg/kg, dose-dependent
Experimental: In this experiment, we used BALB/c-nu/nu female nude mice at 4–6 weeks of age that were purchased from Charles River Laboratories Japan, Inc (Yokohama, Japan). They were maintained under specific-pathogen-free conditions in accordance with the guidelines of the Animal Care and Use Committee at Okayama University. […] Every three days, body weight of the mice and the major axis and minor axis of each tumor were measured and calculated tumor volume using the following formula; (major axis) × (minor axis)^2 × 1/2 [37, 38]. For the 14 days, tumor volume, tumor growth rate and the body weight were analyzed as an average of the each group.

Flt-1 = system: Flt-1; parameters: method as in earlier work; settings: updated data; cited from earlier work
Ret (M918T) = system: Ret (M918T); parameters: method as in earlier work; settings: updated data; cited from earlier work
BRAF (V600E) = system: BRAF (V600E); parameters: method as in earlier work; settings: updated data; cited from earlier work
ZAP-70 = system: ZAP-70; parameters: method as in earlier work; settings: updated data; cited from earlier work
FGFR-3 (K650E) = system: FGFR-3 (K650E); parameters: method as in earlier work; settings: updated data; cited from earlier work
c-Src = settings: updated data; cited from earlier work
Syk = system: Syk; parameters: method as in earlier work; settings: updated data; cited from earlier work
PKB/AKT = system: PKB/AKT; parameters: method as in earlier work; settings: updated data; cited from earlier work

**Q.** With `CNC(=O)c1ccccc1Nc1nc(Nc2ccc(N3CCOCC3)cc2OC)ncc1Cl` [TAE226] as the compound, how does the IC50 (Lck) read?
**A.** Its IC50 is […].

**Q.** And the IC50 (NCI-H2228; read-out: IC50 (μM) (mean ± SD), NCI-H2228, EML4-ALK fusion Variant 3, MTS, TAE226 48 hours, gefitinib 72 hours)?
**A.** The IC50 was 0.28 ± 0.001 µM.

**Q.** And the IC50 (NCI-H2228; read-out: each IC50, NCI-H2228, independent MTS assays)?
**A.** The IC50 was 0.28 µM.

**Q.** What about the IC50 (NCI-H2228; read-out: mean IC50, NCI-H2228, mean of independent MTS assays) of the same compound?
**A.** The IC50 was 0.28 µM.

**Q.** And the IC50 (NCI-H1819; read-out: IC50 (μM) (mean ± SD), NCI-H1819, HER2 amplification, MTS, TAE226 48 hours, gefitinib 72 hours)?
**A.** Its IC50 is 3.8 ± 0.4 µM.

**Q.** What about the IC50 (NCI-H1819; read-out: each IC50, NCI-H1819, independent MTS assays) of the same compound?
**A.** The IC50 was 4 µM and 3.2 µM and 4.1 µM.

**Q.** And the “phosphorylations of EGFR and AKT” value [1]?
**A.** Its value is “inhibited”.

**Q.** What about the IC50 (c-Met) of the same compound?
**A.** Its IC50 is 160 nM.

**Q.** What about the “phosphorylation of IGF-IR after serum-starvation” value (phospho-IGF-IR [2]) of the same compound?
**A.** The value was “completely inhibited”.

**Q.** And the IC50 (NCI-H1648; read-out: IC50 (μM) (mean ± SD), NCI-H1648, HER2 amplification, MTS, TAE226 48 hours, gefitinib 72 hours)?
**A.** The IC50 was 1.7 ± 0.07 µM.

**Q.** And the IC50 (NCI-H1648; read-out: each IC50, NCI-H1648, independent MTS assays)?
**A.** The IC50 was 1.7 µM and 1.8 µM.

**Q.** And the IC50 (NCI-H1648; read-out: mean IC50, NCI-H1648, mean of independent MTS assays)?
**A.** The IC50 was 1.7 µM.

**Q.** And the IC50 (RPC-9; read-out: IC50 (μM) (mean ± SD), RPC-9, EGFR Exon 19 del (E746-A750) + T790M, MTS, TAE226 48 hours, gefitinib 72 hours)?
**A.** The IC50 was 0.31 ± 0.03 µM.

**Q.** What about the IC50 (RPC-9; read-out: each IC50, RPC-9, independent MTS assays) of the same compound?
**A.** The IC50 was 0.35 µM and 0.33 µM and 0.28 µM and 0.27 µM.

**Q.** And the IC50 (PKA)?
**A.** Its IC50 is > 10000 nM.

**Q.** And the IC50 (FAK)?
**A.** Its IC50 is 5.5 nM.

**Q.** What about the IC50 (Tek) of the same compound?
**A.** The IC50 was 580 nM.

**Q.** What about the IC50 (NCI-H1975; read-out: IC50 (μM) (mean ± SD), NCI-H1975, EGFR Exon 21 (L858R) + T790M, MTS, TAE226 48 hours, gefitinib 72 hours) of the same compound?
**A.** The IC50 was 0.17 ± 0.02 µM.

**Q.** What about the IC50 (NCI-H1299; read-out: IC50 (μM) (mean ± SD), NCI-H1299, no alterations, MTS, TAE226 48 hours, gefitinib 72 hours) of the same compound?
**A.** The IC50 was 2.8 ± 0.26 µM.

**Q.** And the IC50 (NCI-H1299; read-out: each IC50, NCI-H1299, independent MTS assays)?
**A.** Its IC50 is 3.1 µM and 3 µM and 2.7 µM and 2.4 µM.

**Q.** What about the IC50 (SK-BR-3; read-out: IC50 (μM) (mean ± SD), SK-BR-3 (breast cancer), HER2 amplification, MTS, TAE226 48 hours) of the same compound?
**A.** Its IC50 is 35.1 ± 0.53 µM.

**Q.** And the IC50 (SK-BR-3; read-out: each IC50, SK-BR-3, independent MTS assays)?
**A.** The IC50 was 34.6 µM and 35.6 µM.

**Q.** And the IC50 (Insulin-R)?
**A.** Its IC50 is 44 nM.

**Q.** And the “phosphorylation of IGF-IR (Tyr1131)” value (phospho-IGF-IR [3])?
**A.** Its value is “not significantly inhibited; also recorded: not suppressed”.

**Q.** And the “tumor volume / tumor growth compared with vehicle-treated mice” value (RPC-9 xenograft)?
**A.** The value was “significantly decreased; also recorded: significantly inhibited”.

**Q.** And the IC50 (BRAF (V600E))?
**A.** The IC50 was 1400 nM.

**Q.** What about the IC50 (ZAP-70) of the same compound?
**A.** The IC50 was 7700 nM.

**Q.** And the IC50 (c-Src)?
**A.** Its IC50 is 910 nM.

**Q.** And the IC50 (PKB/AKT)?
**A.** The IC50 was > 10000 nM.
